Measurements: PubChem BioAssay (NCI)
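Briefly, cells in 96-well plates were exposed to five compound concentrations for 48 h, and endpoints were estimated by linear interpolation. GI50 marks 50% less growth. At the TGI there is no net growth.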

Columns and labels:
Experiment in all cases: growth of human tumour cells (NCI), 48 h
[1] = system: CCRF-CEM leukemia
[2] = system: HCT-15 colon
[3] = system: M14 melanoma
[4] = system: NCI-H460 lung
[5] = system: NCI-H522 lung
[6] = system: RPMI-8226 leukemia
[7] = system: U251 CNS
[8] = system: UACC-62 melanoma
[9] = system: HOP-62 NSCLC
[10] = system: RXF 393 renal

| SMILES | TGI [1] [µM] | TGI [2] [µM] | TGI [3] [µM] | TGI [4] [µM] | TGI [5] [µM] | TGI [6] [µM] | TGI [7] [µM] | TGI [8] [µM] | TGI [9] [µM] | TGI [10] [µM] | GI50 [1] [µM] | GI50 [2] [µM] | GI50 [9] [µM] | GI50 [3] [µM] | GI50 [5] [µM] | GI50 [6] [µM] | GI50 [10] [µM] |
| --- | --- | --- | --- | --- | --- | --- | --- | --- | --- | --- | --- | --- | --- | --- | --- | --- | --- |
| O=c1ccc2cc3ccc4cccc5ccc(c2o1)c3c45 | > 100 | > 100 | > 100 | > 100 | > 100 | > 100 | 31.1 | > 100 | – | – | – | – | – | – | – | – | – |
| O=C1/C(=C\c2cccc(Oc3ccccc3)c2)S(=O)(=O)C(c2ccccc2)N1Cc1ccccc1 (stereo unspecified) | > 100 | 33.7 | 76.6 | 40.9 | 33.7 | – | > 100 | 57.7 | > 100 | 77.5 | – | – | – | – | – | – | – |
| O=C(c1cc2ccccc2cc1O)N1CCCCC1 | 42.6 | > 100 | 64.9 | > 100 | – | 56.3 | > 100 | > 100 | > 100 | > 100 | – | – | – | – | – | – | – |
| BrC/C=C/C[P+](c1ccccc1)(c1ccccc1)c1ccccc1 | > 100 | – | 82.4 | > 100 | 51.3 | > 100 | 87 | 52.3 | 58.2 | – | – | – | – | – | – | – | – |
| C/C(CC1C2CCCC1C2)=N\NC(N)=O (stereo unspecified) | > 100 | > 100 | > 100 | > 100 | > 100 | > 100 | > 100 | > 100 | > 100 | – | – | – | – | – | – | – | – |
| O=C(CCCN1CCC2(CC1)CC(=O)N(N1CCOCC1)C2=O)c1ccccc1 | > 100 | > 100 | > 100 | – | > 100 | > 100 | > 100 | > 100 | > 100 | > 100 | – | – | – | – | – | – | – |
| Cc1c(S(=O)(=O)/N=C(\N)Nc2ccc(Cl)cc2)sc2ccc(Cl)cc12 | – | 44.6 | 37.9 | 33.6 | 30.1 | > 100 | 30.3 | 45.4 | 36.9 | > 100 | – | – | – | – | – | – | – |
| O=c1c2ccccc2nc2[nH][nH]c(=S)n12 | > 100 | > 100 | > 100 | > 100 | – | > 100 | > 100 | > 100 | > 100 | – | – | – | – | – | – | – | – |
| Cc1ccccc1C(O)(c1nccn1C)c1nccn1C | > 100 | > 100 | > 100 | > 100 | > 100 | – | > 100 | > 100 | > 100 | > 100 | – | – | – | – | – | – | – |
| Cc1nn(C(=O)Cc2ccccc2)c2c1C(c1ccc(O)cc1)SC(N)=N2 (stereo unspecified) | > 100 | > 100 | > 100 | > 100 | > 100 | > 100 | – | > 100 | > 100 | – | – | – | – | – | – | – | – |
| O=C1C=CC(=O)N1Nc1ccc([N+](=O)[O-])cc1[N+](=O)[O-] | > 34.3 | > 100 | 40 | > 100 | > 58.9 | > 68.7 | > 100 | > 100 | > 100 | – | – | – | – | – | – | – | – |
| CC(=O)O[C@]12CCCCCC1C1(O)C(O)CCC[C@H]12 (stereo partly specified) | > 100 | > 100 | > 100 | > 100 | – | > 100 | > 100 | > 100 | > 100 | > 100 | – | – | – | – | – | – | – |
| COc1ccc(C(OCC2OC(n3cc(C)c(=O)[nH]c3=O)CC2n2cc(Cn3cc(F)c(=O)[nH]c3=O)nn2)(c2ccccc2)c2ccccc2)cc1 (stereo unspecified) | 9.85 | 23.3 | 27.9 | – | 21.5 | 8.93 | 21.2 | 29.2 | 25.7 | 49.6 | – | – | – | – | – | – | – |
| CC(C)(C)NC(=O)/C(=C\Sc1ccccc1)c1ccc2c(c1)OCO2 | > 100 | > 100 | 54.8 | – | 43.3 | 94.4 | 98.6 | 57.9 | > 100 | – | – | – | – | – | – | – | – |
| Brc1cccc(Nc2nc(-c3cccs3)nc3ccc(Br)cc23)c1 | > 100 | > 100 | 71.3 | > 100 | 54.9 | > 100 | > 100 | 35.8 | > 100 | – | – | – | – | – | – | – | – |
| COc1ccc2cc(-c3ccc(-c4ccc(C(=N)N)s4)s3)ccc2c1 | 4.21 | 3.7 | 15.7 | – | 4.57 | 5.06 | – | – | 3.68 | 23.2 | 1.51 | 1.89 | 1.78 | 4 | 1.92 | 2.16 | 7.22 |
| CSc1cc(Cl)c(C)cc1S(=O)(=O)NC(=O)NNc1ccc(Cl)cc1 | – | > 100 | > 100 | > 100 | > 100 | – | > 100 | – | > 100 | > 100 | – | – | – | – | – | – | – |
| COc1ccc(C#CC(=O)O)c(OC)c1 | > 100 | > 100 | > 100 | > 100 | – | > 100 | > 100 | > 100 | > 100 | – | – | – | – | – | – | – | – |
| CSc1c(C#N)c(N)n2c1C(=O)N(c1ccccc1)C2=S | > 100 | > 100 | > 100 | > 100 | 57.7 | – | > 100 | > 100 | > 100 | > 100 | – | – | – | – | – | – | – |
| CN(C)C(=S)S | – | > 100 | > 100 | > 100 | > 20.4 | > 78.9 | > 100 | > 100 | – | > 100 | – | – | – | – | – | – | – |
| O=C1C[C@H](Sc2ccccc2)C2(OCCO2)[C@@H](Sc2ccccc2)C1 | 1.76 | – | 6.52 | > 44.5 | 1.81 | – | 6.76 | 4.63 | 13.6 | 4.25 | – | – | – | – | – | – | – |
| O=C(CNc1ccccc1Cl)Nn1c(-c2ccccc2)nc2ccccc2c1=O | 70.5 | – | > 10 | > 100 | > 10 | > 100 | 33 | > 10 | 72.9 | 36.7 | – | – | – | – | – | – | – |
| O=C(NCCCN(CCCCN(CCCNC(=O)C(F)(F)F)Cc1ccccc1)Cc1ccccc1)C(F)(F)F | 51.7 | 24.9 | 12.1 | 22.1 | 22.3 | 40.5 | – | 30.6 | – | 32.6 | – | – | – | – | – | – | – |
